Bridge positions count the residues as written; N and C are the ends. Peptide text beside a SMILES is read from it.
Columns and labels:
[1] = biological target: T1, pepsin (Sus scrofa, UniProt P00791); assay: in vitro proteolytic stability: pepsin; format: in vitro ADME, porcine; conditions: pH 2.0, 37° C., up to 3 h
T1 construct: purchased Sigma-Aldrich P68871; host or cells: porcine gastric mucosa
Description: (§1) All samples were analyzed by LC/MS

[2] = stability in simulated gastric fluid (SGF); format: in vitro ADME; conditions: pH 1, 37° C., up to 3 h
Description: as §1
The reference control sample was diluted 10-fold (1000 μL volume) in distilled water for a final concentration of 10 μM and chilled on ice. At each time point, samples were diluted 10-fold (1000 μL volume) in distilled water for an expected concentration of 10 μM, and chilled on ice, until analysis.

[3] = biological target: T2, guanylate cyclase C (Mus musculus, UniProt Q3UWA6); assay: competition binding assay on intestinal epithelial cells of wild-type and GC-C KO mice; conditions: GC-C KO mice compared to wild-type mice; 125I-SEQ ID NO:3
T2 construct: isolated intestinal epithelial cells from two female wild-type and two female GC-C KO mice; from tissue; host or cells: mouse intestinal epithelial cells (homogenised), wild-type; GC-C KO mice as control
T2 sequence (Q3UWA6 20-1072): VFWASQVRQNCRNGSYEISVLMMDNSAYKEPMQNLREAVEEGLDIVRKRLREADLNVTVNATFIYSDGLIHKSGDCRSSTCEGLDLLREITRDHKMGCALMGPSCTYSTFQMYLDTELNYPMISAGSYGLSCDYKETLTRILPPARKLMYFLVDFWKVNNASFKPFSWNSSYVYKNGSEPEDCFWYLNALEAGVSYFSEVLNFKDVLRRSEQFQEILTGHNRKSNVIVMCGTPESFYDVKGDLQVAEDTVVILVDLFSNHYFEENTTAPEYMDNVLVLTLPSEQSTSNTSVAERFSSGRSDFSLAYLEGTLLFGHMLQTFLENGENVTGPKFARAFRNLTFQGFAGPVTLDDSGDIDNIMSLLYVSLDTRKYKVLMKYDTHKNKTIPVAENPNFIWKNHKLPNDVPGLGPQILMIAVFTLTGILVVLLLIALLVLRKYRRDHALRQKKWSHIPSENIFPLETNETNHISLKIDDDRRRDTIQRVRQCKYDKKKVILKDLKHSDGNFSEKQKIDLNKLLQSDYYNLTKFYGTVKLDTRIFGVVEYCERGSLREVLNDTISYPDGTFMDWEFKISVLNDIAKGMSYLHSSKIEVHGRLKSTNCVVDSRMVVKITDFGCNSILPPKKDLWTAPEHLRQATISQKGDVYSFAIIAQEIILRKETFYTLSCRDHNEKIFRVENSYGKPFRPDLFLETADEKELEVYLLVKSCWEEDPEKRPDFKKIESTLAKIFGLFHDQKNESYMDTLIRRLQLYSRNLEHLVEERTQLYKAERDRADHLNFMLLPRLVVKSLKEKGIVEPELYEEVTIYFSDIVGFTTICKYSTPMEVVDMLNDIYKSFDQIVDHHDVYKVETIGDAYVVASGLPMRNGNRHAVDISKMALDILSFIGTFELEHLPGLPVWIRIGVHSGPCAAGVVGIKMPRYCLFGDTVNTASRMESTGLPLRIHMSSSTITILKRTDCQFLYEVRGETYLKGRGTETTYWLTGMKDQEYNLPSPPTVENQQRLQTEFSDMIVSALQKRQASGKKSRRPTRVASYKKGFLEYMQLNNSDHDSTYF
Description: Mouse intestinal epithelial cells were prepared identical to that above as for rat intestinal epithelial cells except the cells were homogenized with an Omni homogenizer for 20 seconds on the maximum setting to make a suspension of cells. A competition binding assay was performed identical to that described above between ^125I labeled SEQ ID NO:3 and unlabeled SEQ ID NO:3 (competitor).

[4] = tested on: intestinal secretion; assay: suckling mouse model of intestinal secretion (SuMi assay); format: in vivo, suckling mice; conditions: dose response; wild-type ST purchased from TDT; FIG. 5a, 5b
Description: In this model a test compound is administered to suckling mice that are between 7 and 9 days old. After the mice are sacrificed, the gastrointestinal tract from the stomach to the cecum is dissected (“guts”). The remains (“carcass”) as well as the guts are weighed and the ratio of guts to carcass weight is calculated. If the ratio is above 0.09, one can conclude that the test compound increases intestinal secretion. […] The effect of Zelnorm® was also studied.

[5] = tested on: gastrointestinal transit; assay: gastrointestinal transit assay in wild-type and GC-C KO mice; format: in vivo; conditions: oral 100 μg/kg
Description: Wild type and GC-C KO mice were fasted overnight and SEQ ID NO: 3 or vehicle alone were orally administered 10 minutes prior to an oral dose of a 10% Activated Carbon/10% Gum Arabic suspension. Animals were sacrificed […] after peptide or vehicle administration.

[6] = biological target: T3, intestinal GC-C receptor (Homo sapiens, UniProt P25092); assay: GC-C receptor activity assay (cyclic GMP) in T84 cells; format: cell-based; conditions: chemically synthesized peptides, cyclic GMP by EIA
T3 construct: monolayers of T84 cells in 24-well plates; host or cells: T84 human colon carcinoma cells
Description: The ability of SEQ ID NO:5, SEQ ID NO:4, SEQ ID NO:3, and SEQ ID NO:6 to activate the intestinal GC-C receptor was assessed in an assay employing the T84 human colon carcinoma cell line (American Type Culture Collection (Bethesda, Md.)). For the assays cells were grown to confluency in 24-well culture plates with a 1:1 mixture of Ham's F12 medium and Dulbecco's modified Eagle's medium (DMEM), supplemented with 5% fetal calf serum and were used at between passages 54 and 60.
Briefly, monolayers of T84 cells in 24-well plates were washed twice with 1 ml/well DMEM, then incubated at 37° C. for 10 min with 0.45 ml DMEM containing 1 mM isobutylmethylxanthine (IBMX), a cyclic nucleotide phosphodiesterase inhibitor, Test peptides (50 μl) were then added and incubated for 30 minutes at 37° C. The media was aspirated and the reaction was then terminated by the addition of ice cold 0.5 ml of 0.1N HCl. The samples were held on ice for 20 minutes and then evaporated to dryness using a heat gun or vacuum centrifugation.

[7] = biological target: T4, chymotrypsin (Bos taurus, UniProt P00766); assay: in vitro proteolytic stability: chymotrypsin; format: in vitro ADME, bovine; conditions: 37° C., up to 24 h
T4 construct: purchased Sigma-Aldrich C6423; host or cells: bovine pancreas
Description: as §1
Samples were returned to the 37° C. water bath.

[8] = tested on: ligated loops of intestine; assay: ligated intestinal loop model in rats; format: in vivo, CD rats; conditions: center loop of the rat small intestine; 5 μg
Description: The loop was roughly centered and was a length of 1-3 cm. The loops were injected with 100 μl of either SEQ ID NO:3 (5 μg) or vehicle (20 mM Tris, pH 7.5 or Krebs Ringer, 10 mM Glucose, HEPES buffer (KRGH)). Following a recovery time of 90 minutes the loops were excised. Weights were recorded for each loop before and after removal of the fluid contained therein. The length of each loop was also recorded. A weight to length ratio (W/L) for each loop was calculated to determine the effects of SEQ ID NO:3 on secretion.
To determine the effect of SEQ ID NO:3 on cGMP activity, fluid from the loop was collected in ice-cold trichloracetic acid (TCA) and stored at −80° C. for use in an assay to measure cGMP levels in the fluid. Intestinal fluid samples were TCA extracted, and cyclic GMP was measured by EIA according to procedures outlined in the Cayman Chemical Cyclic GMP EIA kit (Cayman Chemical, Ann Arbor, Mich.) to determine cyclic GMP levels in the intestinal fluid of the mouse in the presence of either SEQ ID NO:3 or vehicle.
In the case of the rat, however four loops of intestine were surgically ligated. The first three loops were distributed equally in the small intestine and the fourth loop was located in colon. Loops were 1 to 3 centimeters, and were injected with 200 μL of either SEQ ID NO:3 (5 μg) or vehicle (Krebs Ringer, 10 mM glucose, HEPES buffer (KRGH)).

T3 sequence (P25092 24-1073): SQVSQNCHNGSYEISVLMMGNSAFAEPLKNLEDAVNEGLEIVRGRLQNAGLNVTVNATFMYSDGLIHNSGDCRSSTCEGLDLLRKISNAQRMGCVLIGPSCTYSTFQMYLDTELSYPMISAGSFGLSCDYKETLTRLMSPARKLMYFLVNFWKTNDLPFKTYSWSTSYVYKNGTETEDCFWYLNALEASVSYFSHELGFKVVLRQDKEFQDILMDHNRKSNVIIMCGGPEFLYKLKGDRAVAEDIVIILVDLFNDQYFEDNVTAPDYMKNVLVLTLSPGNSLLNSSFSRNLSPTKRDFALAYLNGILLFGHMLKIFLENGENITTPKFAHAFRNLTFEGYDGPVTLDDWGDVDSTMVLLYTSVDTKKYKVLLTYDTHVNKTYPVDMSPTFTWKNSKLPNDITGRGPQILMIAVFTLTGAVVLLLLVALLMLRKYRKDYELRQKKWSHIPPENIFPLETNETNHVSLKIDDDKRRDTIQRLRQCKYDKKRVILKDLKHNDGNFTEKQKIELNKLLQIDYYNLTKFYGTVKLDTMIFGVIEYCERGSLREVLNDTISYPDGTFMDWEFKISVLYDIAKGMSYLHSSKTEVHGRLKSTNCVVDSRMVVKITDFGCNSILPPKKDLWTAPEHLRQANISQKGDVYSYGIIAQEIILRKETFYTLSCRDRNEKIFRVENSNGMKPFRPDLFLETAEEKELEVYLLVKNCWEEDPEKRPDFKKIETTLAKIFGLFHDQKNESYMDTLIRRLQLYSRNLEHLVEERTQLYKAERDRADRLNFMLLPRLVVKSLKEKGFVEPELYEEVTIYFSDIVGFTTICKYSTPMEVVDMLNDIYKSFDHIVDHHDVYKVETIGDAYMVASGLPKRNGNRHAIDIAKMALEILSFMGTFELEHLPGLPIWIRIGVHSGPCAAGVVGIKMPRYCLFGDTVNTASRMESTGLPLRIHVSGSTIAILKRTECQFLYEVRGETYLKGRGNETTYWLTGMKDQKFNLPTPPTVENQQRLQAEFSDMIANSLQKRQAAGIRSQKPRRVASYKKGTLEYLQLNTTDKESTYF
T1 sequence (P00791 60-385): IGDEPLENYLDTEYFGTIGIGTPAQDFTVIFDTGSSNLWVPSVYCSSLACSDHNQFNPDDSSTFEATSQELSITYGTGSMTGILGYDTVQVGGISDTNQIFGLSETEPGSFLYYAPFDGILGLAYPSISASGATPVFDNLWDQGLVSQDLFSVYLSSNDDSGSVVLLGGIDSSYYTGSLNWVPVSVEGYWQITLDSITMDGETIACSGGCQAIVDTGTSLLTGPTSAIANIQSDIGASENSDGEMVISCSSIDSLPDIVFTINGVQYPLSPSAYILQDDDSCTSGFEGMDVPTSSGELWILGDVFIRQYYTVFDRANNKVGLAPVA

C[C@@H]1NC(=O)[C@@H]2CCCN2C(=O)[C@H](CC(N)=O)NC(=O)[C@@H]2CSSC[C@H](N)C(=O)N[C@H]3CSSC[C@H](NC1=O)C(=O)N[C@@H]([C@@H](C)O)C(=O)NCC(=O)N[C@H](C(=O)N[C@@H](Cc1ccc(O)cc1)C(=O)O)CSSC[C@H](NC(=O)[C@H](Cc1ccc(O)cc1)NC(=O)[C@H](CCC(=O)O)NC3=O)C(=O)N2 [SEQ ID NO:3] (H-CCEYCCNPACTGCY-OH; disulfide 1-6, 2-10, 5-13; N-terminus and C-terminus assumed)
Cleavage of SEQ ID NO: 3 by proteolytic substance [1]: not detectable | Cleavage of SEQ ID NO: 3 by proteolytic substance [2]: not detectable | binding to intestinal epithelial cells [3]: reduction in SEQ ID NO:3 binding | intestinal secretion (guts to carcass weight ratio) [4]: increase intestinal secretion | gastrointestinal transit rate versus vehicle [5]: an increase (p<0.001) in gastrointestinal transit rate | activity in GC-C receptor activity assay [6]: activity comparable to SEQ ID NO:4 | Cleavage of SEQ ID NO: 3 by proteolytic substance [7]: not detectable | cGMP levels in ligated loop [8]: increases | secretion in ligated loop [8]: increases
